Data taken from BindingDB's records for patent US20240400586 (Haisco Pharmaceutical Group, 2024).

These compounds were tested against Poly [ADP-ribose] polymerase 1 (Homo sapiens, UniProt P09874) (assay: PARP1 Enzyme Activity Assay).
Poly [ADP-ribose] polymerase 1, sequence (P09874 whole entry): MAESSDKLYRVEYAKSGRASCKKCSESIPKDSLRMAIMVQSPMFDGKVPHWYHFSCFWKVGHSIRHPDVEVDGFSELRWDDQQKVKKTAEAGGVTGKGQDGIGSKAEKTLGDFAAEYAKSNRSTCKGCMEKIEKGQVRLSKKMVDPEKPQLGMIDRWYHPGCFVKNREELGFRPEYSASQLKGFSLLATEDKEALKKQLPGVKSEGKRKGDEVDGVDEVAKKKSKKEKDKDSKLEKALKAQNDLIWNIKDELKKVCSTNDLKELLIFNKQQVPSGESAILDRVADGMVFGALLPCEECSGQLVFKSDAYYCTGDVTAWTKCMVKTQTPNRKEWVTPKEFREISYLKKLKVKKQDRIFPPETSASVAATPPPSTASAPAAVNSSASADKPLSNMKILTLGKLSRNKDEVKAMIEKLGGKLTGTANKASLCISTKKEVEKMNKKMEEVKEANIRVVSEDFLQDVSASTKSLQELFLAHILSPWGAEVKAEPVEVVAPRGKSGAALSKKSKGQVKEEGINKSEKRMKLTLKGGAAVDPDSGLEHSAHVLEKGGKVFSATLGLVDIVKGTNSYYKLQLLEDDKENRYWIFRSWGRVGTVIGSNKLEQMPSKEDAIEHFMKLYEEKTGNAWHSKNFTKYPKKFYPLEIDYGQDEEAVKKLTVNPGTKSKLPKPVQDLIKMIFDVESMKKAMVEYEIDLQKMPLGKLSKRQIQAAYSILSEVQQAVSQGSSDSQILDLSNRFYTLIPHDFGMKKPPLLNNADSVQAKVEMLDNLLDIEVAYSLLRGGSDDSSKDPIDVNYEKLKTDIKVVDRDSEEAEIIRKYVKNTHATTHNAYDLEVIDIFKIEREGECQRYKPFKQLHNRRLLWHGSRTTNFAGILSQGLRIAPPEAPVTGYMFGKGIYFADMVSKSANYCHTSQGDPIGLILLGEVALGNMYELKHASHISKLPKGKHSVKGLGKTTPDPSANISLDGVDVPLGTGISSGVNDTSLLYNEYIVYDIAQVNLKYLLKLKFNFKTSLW
Description: The histone solution in the kit was diluted 5× with 1×PBS, and 25 μL of the diluted histone solution was added to a microwell plate and incubated overnight at 4° C. After the incubation, the plate was washed three times with PBST (0.05% Tween-20). 100 μL of the blocking solution was added to the microwell plate and incubated at 25° C. for 90 minutes. After the incubation, the plate was washed three times with PBST. 2.5 μL of compounds at different concentrations diluted in test buffer and 12.5 μL of substrate mixed solution (1.25 μL 10×PARP test buffer; 1.25 μL 10×PARP test mixed solution; 2.5 μL Activated DNA, 7.5 μL double-distilled water) were added to the microwell plate. The PARP1 enzyme was diluted to 2 ng/μL, 10 μL of the diluent was added to the microwell plate, and the reaction system was incubated at 25° C. for 60 minutes.After the incubation, the plate was washed three times with PBST. Streptavidin-HRP was diluted 50× with a blocking solution, and 25 μL of the diluent was added to the microwell plate and incubated at 25° C. for 30 minutes. After the incubation, the plate was washed three times with PBST. ELISA ECL substrate A and substrate B were mixed at a ratio of 1:1 (v/v), 50 μL of the mixture was added to the microwell plate, and the chemiluminescence value was read.

| IC50 [nM] | SMILES |
| --- | --- |
| 0.56 | CCC1=CC2N=CC(CN3CCN(c4ccc(C(=O)NC5CCC5)nc4)CC3)CC2NC1=O (stereo not drawn) [US20240400586, Compound 10] |
| 0.54 | CCC1CC2N=CC(CN3CCN(C4C=CC(C(=O)N[C@@H]5C[C@@H]5F)=NC4)CC3)=CC2NC1=O (stereo partly drawn) [US20240400586, Compound 11] |
| 0.65 | CCC1Cc2ncc(CN3CCN(C4CN5C=C(C)NC5C=N4)CC3)cc2NC1=O (stereo not drawn) [US20240400586, Compound 15] |
